Assay results published in PMC3328449, “Inhibition of Diacylglycerol–Sensitive TRPC Channels by Synthetic and Natural Steroids” (PLoS ONE, 2012).

Molecular target: T1, mTRPC5 (Mus musculus, UniProt Q9QX29)
T1 construct: expressed in transfected cells
T1 sequence (Q9QX29 1-975): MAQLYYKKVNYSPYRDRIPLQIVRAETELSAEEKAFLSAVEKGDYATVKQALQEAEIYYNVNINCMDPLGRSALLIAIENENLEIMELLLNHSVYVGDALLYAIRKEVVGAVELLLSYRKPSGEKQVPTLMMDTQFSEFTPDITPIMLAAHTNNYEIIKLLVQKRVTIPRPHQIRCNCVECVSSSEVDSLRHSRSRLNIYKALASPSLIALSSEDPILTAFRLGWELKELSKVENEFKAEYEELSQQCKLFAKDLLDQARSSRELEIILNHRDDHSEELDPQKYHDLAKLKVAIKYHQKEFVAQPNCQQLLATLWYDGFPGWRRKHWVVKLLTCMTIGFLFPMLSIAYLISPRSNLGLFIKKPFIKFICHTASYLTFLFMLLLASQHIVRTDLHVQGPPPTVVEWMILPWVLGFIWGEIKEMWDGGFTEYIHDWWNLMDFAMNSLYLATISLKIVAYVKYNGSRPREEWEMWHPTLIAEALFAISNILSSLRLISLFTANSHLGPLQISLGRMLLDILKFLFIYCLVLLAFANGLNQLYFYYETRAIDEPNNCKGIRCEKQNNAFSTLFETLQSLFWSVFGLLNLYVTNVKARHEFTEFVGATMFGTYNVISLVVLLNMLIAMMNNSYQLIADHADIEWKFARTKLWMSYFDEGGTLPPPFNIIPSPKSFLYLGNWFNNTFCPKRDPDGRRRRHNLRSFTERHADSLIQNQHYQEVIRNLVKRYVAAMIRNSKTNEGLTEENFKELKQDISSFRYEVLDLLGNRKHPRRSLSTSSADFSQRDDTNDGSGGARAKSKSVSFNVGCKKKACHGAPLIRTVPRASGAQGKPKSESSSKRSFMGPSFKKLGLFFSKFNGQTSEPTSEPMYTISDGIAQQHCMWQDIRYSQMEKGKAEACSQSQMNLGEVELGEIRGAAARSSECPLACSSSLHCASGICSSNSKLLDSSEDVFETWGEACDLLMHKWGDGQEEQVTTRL
Test: Trypsin-induced Ca2+ entry, fluo-4 fluorometric imaging plate reader, TRPC5 HEK-FITR cells
Format: cell-based
Experimental: Cells were grown at 37°C in a humidified atmosphere (5% or 7% CO2) under standard cell culture conditions. Stable human embryonic kidney (HEK) cell lines expressing recombinant mTRPC4ß (GenBank accession number AAC05178); mTRPC5 (GenBank accession number NM_009428) or hTRPC6 (GenBank accession number AF080394) under the control of a tetracycline-inducible promoter were generated using the Flp-In T-Rex (FITR) system (Invitrogen, Karlsruhe, Germany). […]
Cells grown to an almost confluent monolayer on black poly-D-lysine coated 96-well plates (Greiner, Frickenhausen, Germany) were washed with standard extracellular solution (140 mM NaCl, 1 mM MgCl2, 5.4 mM KCl, 2 mM CaCl2, 10 mM HEPES, 10 mM glucose, pH 7.35) and stained (30 min, room temperature) with dye solution (2 µM fluo-4 AM, 0.02% pluronic F127, 0.1% bovine serum albumin in standard extracellular solution). […] Fluo-4 fluorescence was excited at 488 nm with an argon laser and measured using a fluorometric imaging plate reader (Molecular Devices, Sunnyvale, USA). […]
TRPC4- and TRPC5-mediated Ca^2+ influx was stimulated by application of trypsin that activates endogenous Gq-coupled protease activated receptors in HEK cells. […] Compound effects were then calculated from the area under the curve and normalized to the Ca^2+ influx into trypsin-stimulated, non-compound-treated cells. […]

With `CC(=O)[C@H]1CC[C@H]2[C@@H]3CCC4=CC(=O)CC[C@]4(C)[C@H]3CC[C@]12C` [progesterone] the IC50 (TRPC5 HEK-FITR cells, fluo-4, 200 nM trypsin, read-out: IC50, inhibition of trypsin-induced Ca2+ entry via TRPC5) was 11.8 µM and the “Hill slope n, inhibition of TRPC5-mediated Ca2+ entry” value (fit to Hill model) was 2.5.
